Test results: US20230119360A1, “PHARMACEUTICAL COMBINATION OF A THERAPEUTIC OLIGONUCLEOTIDE TARGETING HBV AND A TLR7 AGONIST FOR TREATMENT OF HBV” (priority 2019, published 2023)

Experiments:
HBV [1] = test: AAV-HBV mouse model, single dose siRNA vs ASO: serum HBsAg; type: in vivo, C57BL/6 mice; details: 6.6 mg/kg single subcutaneous injection Day 0
Method: The purpose of this study was to evaluate the in vivo pharmacology and efficacy of certain compounds in AAV-HBV mouse model.
Recombinant adeno-associated virus (AAV) carrying the Hepatitis B Virus (HBV) genome rAAV8-1.3HBV ayw (Lot No: 2019032703) was purchased from Beijing FivePlus Molecular Medicine Institute, and stored at −70° C. before use.
One hundred and fifteen (115) male C57BL/6 mice were obtained. On Pre-dose Day 0, all the animals were subjected to injection through tail vein with 1×10^11 vector genome of AAV-HBV for model induction. Based on baseline serum viral markers and body weight on Pre-dose Day 24, 80 qualified HBV-infected mice were selected.
The 80 selected mice were randomized into 4 groups for compound treatment. Sterile water, DCR-AUD1, DCR-5219 (9 mg/kg), and CMP ID NO: 15_1 (6.6 mg/kg) were subcutaneously injected once at 5 mL/kg on Day 0. The dosing volume was […].
Whole blood was collected to prepare serum (15 μL per mouse) twice weekly during Day 0˜21. On Day 21, the mice were euthanized. […]
Baseline serum levels of HBsAg were determined by ARCHITECT i2000 (Abbott Laboratories, Lake Bluff, IL, USA) and supporting reagents. Baseline serum HBV DNA level was measured by using ABI7500 (Applied Biosystems, Foster City, Calif., USA) and detection kit (Sansure Biotech Inc., Changsha, Hunan, China).

HBV [2] = test: AAV/HBV mouse model: HBsAg levels in serum (CLIA); type: in vivo, C57BL/6 mice; set-up: HBsAg levels in serum, Average ± SD: unit not given here; details: for HBsAg levels in serum, Average ± SD: AAV/HBV mice, anti-HBV ASO 7.5 mg/kg weekly, TLR7 100 mg/kg weekly (QW)
Text: (§1) The AAV-HBV mouse model is generated by injecting C57BL/6 mice with recombinant adeno-associated virus harboring a replicable HBV genome (AAV-HBV). The rAAV8-1.3 HBV ayw virus stock was purchased from Beijing FivePlus Molecular Medicine Institute (Beijing, China).
The animals (male, aged 4-5 weeks upon arrival) were purchased from SLAC Laboratory Animal Co. Ltd (Shanghai, China), acclimatized in the animal facility for 5-7 days, and then injected with 1×10^11 vector genome of AAV-HBV (diluted in 200 μL of PBS) through the tail vein. Persistence expression of HBV genome can be established after three weeks, with high levels of HBV viral markers including HBV DNA, HBsAg, and HBeAg in mouse serum. With stable HBV viremia and competent immune system of the C57BL/6 mice, the AAV-HBV mouse model was used to evaluate the in vivo anti-HBV efficacy of the compounds. The in-life part of the AAV-HBV study was conducted through contracted service at Covance Pharmaceutical Research and Development (Shanghai) Co. Ltd. (Covance Shanghai) and the post-life analysis using the serum was performed internally at Roche Innovation Center Shanghai (RICS).
Seven days before compound treatment, blood samples were collected for serum preparation (˜15 μL), and based on HBV DNA, HBsAg levels in serum and body weight, the AAV-HBV infected animals were stratified into the different treatment groups.
Saline (Group 01) and anti-HBV ASO of CMP ID NO: 15_1 at 1.5 or 7.5 mg/kg were dosed sub subcutaneously once a week during Day 0-49 on Days 0, 7, 14, 21, 28, 35, 42 and 49. TLR7 agonist of CMP ID NO: VI 100 mg/kg was administered by oral gavage once every other day during Day 0-55 (QOD) or once weekly during Day 0-49 on Days 0, 7, 14, 21, 28, 35, 42 and 49 (QW). The animals were weekly bled via retro-orbital sinus for sample collection throughout the study. • Oligonucleotide Synthesis
Serum HBsAg levels were determined in the serum of infected AAV-HBV mouse using the HBsAg chemoluminescence immunoassay (CLIA) (Autobio diagnostics Co. Ltd., Zhengzhou, China, Cat. no.CL0310-2), according to the manufacturer's protocol. Briefly, 50μl of serum was transferred to the antibody coated microtiter plate and 50 μl of enzyme conjugate reagent was added. The plate was incubated for 60 min on a shaker at room temperature before all wells were washed six times with washing buffer using an automatic washer. 25 μl of substrate A and then 25 μl of substrate B was added to each well. The plate was incubated for 10 min at RT before luminescence was measured using an Envision luminescence reader (Perkin Elmer). HBsAg is given in the unit IU/ml; where 1 ng HBsAg=1.14 IU.
(§2) To evaluate the combination of the anti-HBV ASO and the TLR7 agonist in an in vivo system, a mouse model of chronic HBV infection was used. In the AAV/HBV mouse model described in the Materials and Method a persistent HBV infection is established resulting in expression of viral markers (HBsAg, HBeAg, HBV DNA) detectable in plasma. The effect on these viral markers upon treatment with the anti-HBV ASO of CMP ID NO: 15_1 (table 2, and FIG. 4) dosed at 1.5 mg/kg or 7.5 mg/kg and the TLR7 agonist of CMP ID NO: VI (table 3) dosed with […] every other day (QOD) or once weekly (QW) in monotherapy or in combination has been evaluated.

HBV [3] = test: AAV/HBV mouse model: HBV-DNA levels in serum (qPCR); type: in vivo, C57BL/6 mice
Text: as §1
The animals (male, aged 4-5 weeks upon arrival) were purchased from SLAC Laboratory Animal Co. Ltd (Shanghai, China), acclimatized in the animal facility for 5-7 days, and then injected with 1×10^11 vector genome of AAV-HBV (diluted in 200 μL of PBS) through the tail vein. Persistence expression of HBV genome can be established after three weeks, with high levels of HBV viral markers including HBV DNA, HBsAg, and HBeAg in mouse serum. […]
Quantification of extracted HBV DNA was performed using a Taqman qPCR machine (ViiA7, life technologies). […] DNA copy numbers were calculated from Ct values based on a HBV plasmid DNA standard curve by the ViiA7 software.
as §2, with “In the AAV/HBV mouse model described in the Materials and Method a persistent HBV infection is established resulting in expression of viral markers (HBsAg, HBeAg, HBV DNA) detectable in plasma.” left out

HBV [4] = test: Entecavir combination study in HBV-expressing mouse (HDI model); type: in vivo; details: HDI mice; monotherapy
Method: The RNAi oligonucleotides targeting the S antigen impact both the viral polymerase and HBsAg protein. In this study, the combinational effects of HBV(s)-219P2 as a monotherapy and combinational treatment with entecavir was explored in an HBV-expressing mouse (HDI model) for antiviral activity.
Mice were administered daily oral dosing of 500 ng/kg Entecavir (ETV) for 14 days. A single subcutaneous administration of HBV(s)-219P2 took place. Circulating viral load (HBV DNA) was measured by qPCR (FIG. 25A), plasma HBsAg level was measured by ELISA (FIG. 25B), and liver HBV mRNA and pgRNA levels were measured by qPCR.

HBsAg = system: HBsAg
Method: Preclinical potency was further evaluated in mice following a QW×3 dosing regimen in which HBV-254 was subcutaneously administered at 3 mg/kg (FIG. 23). The administration points are indicated by arrows in the figure. HBsAg levels were monitored in both oligonucleotide treated and untreated control mice for a period spanning 147 days.
Each oligonucleotide, including HBV-254, was evaluated at three concentrations (1, 10, and 100 pM) in HeLa cells using the fluorescence-based reporter assay.

Compound: 5′-GN2-C6ocoaoGs^mCsGstsasasasgsasgsasGsG-3′ [CMP ID NO: 15_1]
- time until which decrease in HBsAg was maintained before rebound (HBV [1]): about 10 days
- HBsAg level over time (HBV [1]; 21 days): rapid decrease in HBsAg level
- HBsAg levels in serum, Average ± SD (HBV [2]; D 0): 4.30 ± 0.30
- HBsAg levels in serum, Average ± SD (HBV [2]; D 7): 1.71 ± 0.24
- HBsAg levels in serum, Average ± SD (HBV [2]; D 14): 1.83 ± 0.21
- HBsAg levels in serum, Average ± SD (HBV [2]; D 21): 1.43 ± 0.17
- HBsAg levels in serum, Average ± SD (HBV [2]; D 28): 1.30 ± 0.19
- HBsAg levels in serum, Average ± SD (HBV [2]; D 35): 1.36 ± 0.26
- HBsAg levels in serum, Average ± SD (HBV [2]; D 42): 1.30 ± 0.16
- HBsAg levels in serum, Average ± SD (HBV [2]; D 49): 1.56 ± 0.16
- HBsAg levels in serum, Average ± SD (HBV [2]; D 56): 1.32 ± 0.24
- HBsAg levels in serum, Average ± SD (HBV [2]; D 63): 1.33 ± 0.47
- HBsAg levels in serum, Average ± SD (HBV [2]; D 70): 2.18 ± 0.91
- HBsAg levels in serum, Average ± SD (HBV [2]; D 77): 2.70 ± 0.85
- HBsAg levels in serum, Average ± SD (HBV [2]; D 84): 3.17 ± 0.60
- HBsAg levels in serum, Average ± SD (HBV [2]; D 91): 3.82 ± 0.38
- HBsAg levels in serum, Average ± SD (HBV [2]; D 98): 3.64 ± 0.81
- HBsAg levels in serum, Average ± SD (HBV [2]; D 105): 3.61 ± 0.97
- HBsAg levels in serum, Average ± SD (HBV [2]; D 111): 3.40 ± 1.49
- suppression of HBsAg below the detection limit (HBV [2]; anti-HBV ASO 1.5 mg/kg monotherapy): not capable of suppressing HBsAg to a level below the detection limit
- reduction in HBV-DNA (HBV [3]; monotherapy at both 1.5 mg/kg and 7.5 mg/kg): rapid reduction in HBV-DNA to below the lower level of quantification

Compound: CC[C@H](OC(C)=O)[C@@H]1C[C@@H](O)[C@H](n2c(=O)sc3cnc(N)nc32)O1 [CMP ID NO: VI, [(1S)-1-[(2S,4R,5R)-5-(5-amino-2-oxo-thiazolo[4,5-d]pyrimidin-3-yl)-4-hydroxy-tetrahydrofuran-2-yl]propyl] acetate]
- day of lowest HBsAg (HBV [2]; TLR7 agonist alone (FIG. 10A)): 42 days
- HBV DNA rebound, distance from control group during follow-up (HBV [3]; TLR7 agonist monotherapy, QOD or QW): ≤ 1 log

Compound: C=C1[C@H](CO)[C@@H](O)C[C@@H]1n1cnc2c(=O)[nH]c(N)nc21 [entecavir, Entecavir]
- circulating HBsAg (HBV [4]): No significant decrease
- hepatic viral RNAs (HBV [4]): No significant decrease

Compound: HBV-254: HBsAg-targeting duplex oligonucleotide, sense SEQ ID NO: 55, antisense SEQ ID NO: 56 (sense GUGGUGGACUUCUCUCAAUAGCAGCCGAAAGGCUGC; antisense UAUUGAGAGAAGUCCACCACGG; chemistry not given here)
- HBsAg levels (HBsAg; HDI-mice, single subcutaneous dose, increasing dosage): systematically reduced HBsAg levels in mice with increasing dosage
- HBsAg levels relative to control (HBsAg; mice, QW×3, 3 mg/kg subcutaneous, monitored 147 days): Diminished HBsAg levels persisted in treated mice throughout the entirety of the study
